Test results: ChEMBL document CHEMBL1145498, “A systematic interaction map of validated kinase inhibitors with Ser/Thr kinases” (Proc Natl Acad Sci U S A, 2007)

The compounds below were run against Calcium/calmodulin-dependent protein kinase type 1D (Homo sapiens) (UniProt Q8IU85).
Calcium/calmodulin-dependent protein kinase type 1D (Homo sapiens), sequence (Q8IU85 whole entry, looked up): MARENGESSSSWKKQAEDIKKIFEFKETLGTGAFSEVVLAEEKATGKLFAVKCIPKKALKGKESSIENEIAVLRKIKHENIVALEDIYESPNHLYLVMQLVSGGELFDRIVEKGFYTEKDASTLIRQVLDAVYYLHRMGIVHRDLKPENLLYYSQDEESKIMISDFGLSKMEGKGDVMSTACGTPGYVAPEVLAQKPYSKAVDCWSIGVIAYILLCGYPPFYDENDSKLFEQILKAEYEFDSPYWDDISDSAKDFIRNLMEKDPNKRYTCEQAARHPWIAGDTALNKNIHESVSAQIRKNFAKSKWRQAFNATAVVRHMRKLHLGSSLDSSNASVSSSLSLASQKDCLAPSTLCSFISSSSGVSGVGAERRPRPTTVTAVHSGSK
With `Cc1cc(C=C2C(=O)C=CC2=O)cc(C)c1O` the ΔTm was -1 °C.
For `CC[C@H](CO)Nc1nc(NCc2ccccc2)c2ncn(C(C)C)c2n1` [SELICICLIB], the ΔTm was 0 °C.
For `COc1ccc2c(c1)/C(=C/c1cnc[nH]1)C(=O)N2` [SU-9516], the ΔTm was 0.5 °C.

These compounds were tested against Cyclin-dependent kinase 6 (Homo sapiens) (UniProt Q00534).
Cyclin-dependent kinase 6 (Homo sapiens), sequence (Q00534 whole entry): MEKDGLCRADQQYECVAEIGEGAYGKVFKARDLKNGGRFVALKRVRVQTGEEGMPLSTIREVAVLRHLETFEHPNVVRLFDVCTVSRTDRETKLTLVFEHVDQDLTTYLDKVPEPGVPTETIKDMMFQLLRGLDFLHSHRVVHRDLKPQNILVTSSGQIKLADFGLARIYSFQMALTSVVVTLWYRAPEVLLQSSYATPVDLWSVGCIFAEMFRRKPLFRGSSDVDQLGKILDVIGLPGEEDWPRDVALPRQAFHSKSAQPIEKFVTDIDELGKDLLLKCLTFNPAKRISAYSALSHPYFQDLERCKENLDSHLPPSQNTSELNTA
In the case of `Cc1cc(C=C2C(=O)C=CC2=O)cc(C)c1O`, the ΔTm is reported as -3.4 °C.
With `CC[C@H](CO)Nc1nc(NCc2ccccc2)c2ncn(C(C)C)c2n1` [SELICICLIB] the ΔTm was 0.2 °C.
In the case of `COc1ccc2c(c1)/C(=C/c1cnc[nH]1)C(=O)N2` [SU-9516], the ΔTm is reported as 3 °C.

Each compound was assayed against Cyclin-dependent kinase-like 1 (Homo sapiens) (UniProt Q00532).
Cyclin-dependent kinase-like 1 (Homo sapiens), sequence (Q00532 whole entry): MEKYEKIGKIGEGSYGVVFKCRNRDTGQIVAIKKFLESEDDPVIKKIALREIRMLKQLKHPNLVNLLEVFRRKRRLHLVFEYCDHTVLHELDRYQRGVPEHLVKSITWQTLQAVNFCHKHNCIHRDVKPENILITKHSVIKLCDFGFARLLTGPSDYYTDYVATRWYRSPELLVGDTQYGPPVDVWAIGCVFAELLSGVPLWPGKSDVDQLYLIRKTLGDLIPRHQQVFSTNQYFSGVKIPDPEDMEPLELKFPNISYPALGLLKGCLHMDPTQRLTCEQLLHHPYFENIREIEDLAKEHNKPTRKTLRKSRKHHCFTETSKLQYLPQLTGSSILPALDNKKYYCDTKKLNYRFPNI
Work on `Cc1cc(C=C2C(=O)C=CC2=O)cc(C)c1O` yielded a ΔTm of -2.2 °C.
`CC[C@H](CO)Nc1nc(NCc2ccccc2)c2ncn(C(C)C)c2n1` [SELICICLIB] was tested, and the ΔTm was 0.2 °C.
In the case of `COc1ccc2c(c1)/C(=C/c1cnc[nH]1)C(=O)N2` [SU-9516], the ΔTm is reported as 5.8 °C.

Each compound was assayed against Serine/threonine-protein kinase Chk2 (Homo sapiens, UniProt O96017).
Serine/threonine-protein kinase Chk2, sequence (O96017 whole entry): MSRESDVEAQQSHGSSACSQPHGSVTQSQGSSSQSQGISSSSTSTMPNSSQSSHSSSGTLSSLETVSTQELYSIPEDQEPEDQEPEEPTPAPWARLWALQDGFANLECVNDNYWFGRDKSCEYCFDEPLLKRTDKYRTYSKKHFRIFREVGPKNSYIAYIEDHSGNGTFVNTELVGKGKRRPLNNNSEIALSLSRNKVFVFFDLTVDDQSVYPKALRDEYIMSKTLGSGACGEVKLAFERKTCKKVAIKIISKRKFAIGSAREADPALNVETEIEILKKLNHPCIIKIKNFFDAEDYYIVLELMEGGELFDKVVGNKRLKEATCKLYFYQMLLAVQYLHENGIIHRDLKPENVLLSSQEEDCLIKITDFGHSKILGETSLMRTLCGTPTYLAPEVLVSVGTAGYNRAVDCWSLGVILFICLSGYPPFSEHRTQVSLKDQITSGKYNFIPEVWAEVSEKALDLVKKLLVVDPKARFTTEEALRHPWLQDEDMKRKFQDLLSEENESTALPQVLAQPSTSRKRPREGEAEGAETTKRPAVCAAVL
`Cc1cc(C=C2C(=O)C=CC2=O)cc(C)c1O` was tested, and the ΔTm was 2.5 °C.
With `CC[C@H](CO)Nc1nc(NCc2ccccc2)c2ncn(C(C)C)c2n1` [SELICICLIB] the ΔTm was 0 °C.
`COc1ccc2c(c1)/C(=C/c1cnc[nH]1)C(=O)N2` [SU-9516] was tested, and the ΔTm was 1.6 °C.

The compounds below were run against Dual specificity protein kinase CLK1 (Homo sapiens) (UniProt P49759).
Dual specificity protein kinase CLK1 (Homo sapiens), sequence (P49759 whole entry, looked up): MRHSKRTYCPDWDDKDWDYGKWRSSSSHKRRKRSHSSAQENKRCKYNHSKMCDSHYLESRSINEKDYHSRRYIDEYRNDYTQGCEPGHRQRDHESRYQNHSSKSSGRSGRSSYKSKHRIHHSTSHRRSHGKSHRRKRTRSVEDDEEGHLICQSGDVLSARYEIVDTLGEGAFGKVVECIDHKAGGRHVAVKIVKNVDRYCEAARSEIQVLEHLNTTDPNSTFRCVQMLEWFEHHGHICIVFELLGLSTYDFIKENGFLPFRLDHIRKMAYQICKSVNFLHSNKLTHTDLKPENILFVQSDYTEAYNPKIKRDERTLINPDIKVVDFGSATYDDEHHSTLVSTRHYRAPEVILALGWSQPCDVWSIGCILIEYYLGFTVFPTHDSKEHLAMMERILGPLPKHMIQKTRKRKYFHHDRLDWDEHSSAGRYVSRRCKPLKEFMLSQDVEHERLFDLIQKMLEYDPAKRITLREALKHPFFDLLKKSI
Work on `Cc1cc(C=C2C(=O)C=CC2=O)cc(C)c1O` yielded a ΔTm of -0.4 °C.
`CC[C@H](CO)Nc1nc(NCc2ccccc2)c2ncn(C(C)C)c2n1` [SELICICLIB] gave a ΔTm of 2.1 °C.
For `COc1ccc2c(c1)/C(=C/c1cnc[nH]1)C(=O)N2` [SU-9516], the ΔTm was 3.4 °C.

These compounds were tested against Glycogen synthase kinase-3 beta (Homo sapiens, UniProt P49841).
Glycogen synthase kinase-3 beta, sequence (P49841 whole entry, looked up): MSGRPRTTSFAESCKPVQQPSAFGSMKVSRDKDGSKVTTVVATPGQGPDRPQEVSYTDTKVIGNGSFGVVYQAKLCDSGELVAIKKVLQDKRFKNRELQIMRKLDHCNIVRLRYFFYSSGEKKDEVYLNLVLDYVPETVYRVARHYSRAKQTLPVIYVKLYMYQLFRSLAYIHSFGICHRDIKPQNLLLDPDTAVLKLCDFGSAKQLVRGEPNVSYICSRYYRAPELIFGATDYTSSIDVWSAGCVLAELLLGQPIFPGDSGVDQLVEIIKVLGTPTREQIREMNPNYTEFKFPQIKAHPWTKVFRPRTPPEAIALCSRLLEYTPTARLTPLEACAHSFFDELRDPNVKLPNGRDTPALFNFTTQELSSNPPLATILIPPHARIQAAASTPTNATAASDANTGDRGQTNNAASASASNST
Work on `Cc1cc(C=C2C(=O)C=CC2=O)cc(C)c1O` yielded a ΔTm of -2.9 °C.
In the case of `CC[C@H](CO)Nc1nc(NCc2ccccc2)c2ncn(C(C)C)c2n1` [SELICICLIB], the ΔTm is reported as 0.4 °C.
`COc1ccc2c(c1)/C(=C/c1cnc[nH]1)C(=O)N2` [SU-9516] gave a ΔTm of 8.7 °C.

What follows are compounds tested against Mitogen-activated protein kinase 11 (Homo sapiens, UniProt Q15759).
Mitogen-activated protein kinase 11, sequence (Q15759 whole entry): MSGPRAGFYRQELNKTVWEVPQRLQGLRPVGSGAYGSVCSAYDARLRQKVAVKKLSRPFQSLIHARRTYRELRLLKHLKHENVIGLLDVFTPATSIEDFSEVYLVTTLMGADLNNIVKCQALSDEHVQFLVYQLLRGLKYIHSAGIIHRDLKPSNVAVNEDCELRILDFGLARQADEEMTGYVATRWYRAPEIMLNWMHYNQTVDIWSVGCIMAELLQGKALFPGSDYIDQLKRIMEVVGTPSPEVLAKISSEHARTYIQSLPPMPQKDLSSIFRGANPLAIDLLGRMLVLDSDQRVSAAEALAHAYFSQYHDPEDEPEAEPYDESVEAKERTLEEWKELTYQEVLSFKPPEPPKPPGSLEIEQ
`Cc1cc(C=C2C(=O)C=CC2=O)cc(C)c1O` was tested, and the ΔTm was 2.3 °C.
Work on `CC[C@H](CO)Nc1nc(NCc2ccccc2)c2ncn(C(C)C)c2n1` [SELICICLIB] yielded a ΔTm of 1 °C.
For `COc1ccc2c(c1)/C(=C/c1cnc[nH]1)C(=O)N2` [SU-9516], the ΔTm was 0.8 °C.

These compounds were tested against T1, Serine/threonine-protein kinase Nek2 (Homo sapiens) (UniProt P51955).
T1 sequence (whole entry): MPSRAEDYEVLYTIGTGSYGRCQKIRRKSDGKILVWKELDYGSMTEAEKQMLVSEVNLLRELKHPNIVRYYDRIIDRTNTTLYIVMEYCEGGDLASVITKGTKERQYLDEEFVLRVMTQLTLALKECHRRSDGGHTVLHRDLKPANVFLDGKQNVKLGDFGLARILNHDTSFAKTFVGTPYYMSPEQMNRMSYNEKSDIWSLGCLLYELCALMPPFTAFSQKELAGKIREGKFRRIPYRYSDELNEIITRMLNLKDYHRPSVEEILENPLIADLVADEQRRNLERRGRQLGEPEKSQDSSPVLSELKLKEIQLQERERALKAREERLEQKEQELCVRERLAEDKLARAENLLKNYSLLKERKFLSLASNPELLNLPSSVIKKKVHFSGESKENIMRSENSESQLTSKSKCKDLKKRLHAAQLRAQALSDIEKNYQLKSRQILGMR
In the case of `Cc1cc(C=C2C(=O)C=CC2=O)cc(C)c1O`, the ΔTm is reported as 0.8 °C.
`CC[C@H](CO)Nc1nc(NCc2ccccc2)c2ncn(C(C)C)c2n1` [SELICICLIB] showed a ΔTm of 0.7 °C.
Work on `COc1ccc2c(c1)/C(=C/c1cnc[nH]1)C(=O)N2` [SU-9516] yielded a ΔTm of 1.2 °C.

What follows are compounds tested against Serine/threonine-protein kinase PAK 5 (Homo sapiens) (UniProt Q9P286).
Serine/threonine-protein kinase PAK 5 (Homo sapiens), sequence (Q9P286 whole entry, looked up): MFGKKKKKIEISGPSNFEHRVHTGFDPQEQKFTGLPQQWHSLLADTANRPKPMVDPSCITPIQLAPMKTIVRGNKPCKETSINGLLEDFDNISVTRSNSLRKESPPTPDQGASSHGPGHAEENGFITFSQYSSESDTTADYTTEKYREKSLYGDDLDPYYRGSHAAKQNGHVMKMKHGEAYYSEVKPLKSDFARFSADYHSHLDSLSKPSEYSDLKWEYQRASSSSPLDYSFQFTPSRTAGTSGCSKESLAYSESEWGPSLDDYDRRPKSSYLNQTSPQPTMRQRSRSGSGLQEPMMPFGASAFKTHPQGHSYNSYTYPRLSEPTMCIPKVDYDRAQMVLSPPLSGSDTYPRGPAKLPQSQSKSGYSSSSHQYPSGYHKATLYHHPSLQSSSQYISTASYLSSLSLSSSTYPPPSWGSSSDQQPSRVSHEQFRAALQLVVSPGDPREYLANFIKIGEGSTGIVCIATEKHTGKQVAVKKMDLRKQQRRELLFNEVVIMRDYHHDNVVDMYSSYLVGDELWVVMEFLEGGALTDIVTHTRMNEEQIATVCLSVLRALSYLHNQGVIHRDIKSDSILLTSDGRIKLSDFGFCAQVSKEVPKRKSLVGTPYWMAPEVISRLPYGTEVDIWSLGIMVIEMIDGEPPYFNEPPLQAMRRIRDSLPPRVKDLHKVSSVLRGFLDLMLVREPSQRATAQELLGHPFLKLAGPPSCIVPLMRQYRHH
Work on `Cc1cc(C=C2C(=O)C=CC2=O)cc(C)c1O` yielded a ΔTm of 0.1 °C.
Compound `CC[C@H](CO)Nc1nc(NCc2ccccc2)c2ncn(C(C)C)c2n1` [SELICICLIB] has a ΔTm of 0.6 °C.
`COc1ccc2c(c1)/C(=C/c1cnc[nH]1)C(=O)N2` [SU-9516] gave a ΔTm of 1.2 °C.

Each compound was assayed against T2, 3-phosphoinositide-dependent protein kinase 1 (Homo sapiens) (UniProt O15530).
T2 sequence (whole entry): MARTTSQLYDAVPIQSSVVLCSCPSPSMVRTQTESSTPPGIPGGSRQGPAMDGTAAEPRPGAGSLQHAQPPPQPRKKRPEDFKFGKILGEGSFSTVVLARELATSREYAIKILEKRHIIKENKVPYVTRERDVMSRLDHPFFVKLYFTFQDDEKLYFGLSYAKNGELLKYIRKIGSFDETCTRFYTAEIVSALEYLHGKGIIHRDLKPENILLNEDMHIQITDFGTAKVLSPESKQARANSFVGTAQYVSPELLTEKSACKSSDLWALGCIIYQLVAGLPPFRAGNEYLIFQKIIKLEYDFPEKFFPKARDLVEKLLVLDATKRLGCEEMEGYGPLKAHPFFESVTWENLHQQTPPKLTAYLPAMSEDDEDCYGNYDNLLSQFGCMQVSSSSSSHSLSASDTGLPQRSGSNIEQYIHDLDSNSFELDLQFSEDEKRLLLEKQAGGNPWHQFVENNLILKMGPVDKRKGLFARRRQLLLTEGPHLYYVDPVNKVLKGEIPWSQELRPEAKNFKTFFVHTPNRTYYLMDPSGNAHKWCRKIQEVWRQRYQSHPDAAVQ
In the case of `Cc1cc(C=C2C(=O)C=CC2=O)cc(C)c1O`, the ΔTm is reported as -0.4 °C.
In the case of `CC[C@H](CO)Nc1nc(NCc2ccccc2)c2ncn(C(C)C)c2n1` [SELICICLIB], the ΔTm is reported as 0.2 °C.
`COc1ccc2c(c1)/C(=C/c1cnc[nH]1)C(=O)N2` [SU-9516] gave a ΔTm of 0.2 °C.

The compounds below were run against Serine/threonine-protein kinase pim-1 (Homo sapiens) (UniProt P11309).
Serine/threonine-protein kinase pim-1 (Homo sapiens), sequence (P11309 whole entry, looked up): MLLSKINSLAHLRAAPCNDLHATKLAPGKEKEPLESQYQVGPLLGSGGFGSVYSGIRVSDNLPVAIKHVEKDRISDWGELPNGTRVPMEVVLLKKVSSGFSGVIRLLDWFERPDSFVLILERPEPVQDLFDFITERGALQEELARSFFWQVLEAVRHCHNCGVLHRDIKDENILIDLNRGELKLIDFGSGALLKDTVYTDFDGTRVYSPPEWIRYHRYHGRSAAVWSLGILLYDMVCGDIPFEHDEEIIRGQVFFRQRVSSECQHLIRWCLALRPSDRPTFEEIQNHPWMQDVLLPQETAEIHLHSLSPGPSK
`Cc1cc(C=C2C(=O)C=CC2=O)cc(C)c1O` was tested, and the ΔTm was -1.4 °C.
In the case of `CC[C@H](CO)Nc1nc(NCc2ccccc2)c2ncn(C(C)C)c2n1` [SELICICLIB], the ΔTm is reported as -1 °C.
For `COc1ccc2c(c1)/C(=C/c1cnc[nH]1)C(=O)N2` [SU-9516], the ΔTm was 1.3 °C.

Each compound was assayed against T3, Serine/threonine-protein kinase PLK4 (Homo sapiens) (UniProt O00444).
T3 sequence (whole entry): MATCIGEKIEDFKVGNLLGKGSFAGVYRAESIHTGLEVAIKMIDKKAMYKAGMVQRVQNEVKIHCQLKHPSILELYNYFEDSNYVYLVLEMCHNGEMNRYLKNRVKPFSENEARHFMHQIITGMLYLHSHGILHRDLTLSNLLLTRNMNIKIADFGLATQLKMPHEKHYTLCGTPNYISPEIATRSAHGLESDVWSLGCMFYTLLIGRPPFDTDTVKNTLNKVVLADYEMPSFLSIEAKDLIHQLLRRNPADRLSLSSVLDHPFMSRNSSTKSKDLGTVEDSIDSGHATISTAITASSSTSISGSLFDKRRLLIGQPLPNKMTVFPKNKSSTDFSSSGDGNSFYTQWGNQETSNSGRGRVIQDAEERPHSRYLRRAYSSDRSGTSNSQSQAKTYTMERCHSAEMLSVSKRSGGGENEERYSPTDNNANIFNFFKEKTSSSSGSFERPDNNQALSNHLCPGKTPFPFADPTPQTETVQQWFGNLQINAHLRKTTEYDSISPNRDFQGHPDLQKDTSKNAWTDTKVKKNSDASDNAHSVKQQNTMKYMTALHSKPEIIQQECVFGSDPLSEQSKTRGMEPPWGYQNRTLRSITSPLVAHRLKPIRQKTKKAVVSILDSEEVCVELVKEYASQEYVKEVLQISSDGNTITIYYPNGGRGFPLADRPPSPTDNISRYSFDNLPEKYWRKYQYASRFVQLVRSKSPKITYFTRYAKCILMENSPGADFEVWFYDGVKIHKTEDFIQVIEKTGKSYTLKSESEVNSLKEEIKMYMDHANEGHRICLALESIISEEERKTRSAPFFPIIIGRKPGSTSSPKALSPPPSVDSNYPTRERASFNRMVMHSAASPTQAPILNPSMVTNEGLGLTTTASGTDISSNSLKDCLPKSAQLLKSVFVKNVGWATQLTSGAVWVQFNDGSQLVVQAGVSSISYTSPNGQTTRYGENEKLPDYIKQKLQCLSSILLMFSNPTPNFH
`Cc1cc(C=C2C(=O)C=CC2=O)cc(C)c1O` showed a ΔTm of 1.3 °C.
`CC[C@H](CO)Nc1nc(NCc2ccccc2)c2ncn(C(C)C)c2n1` [SELICICLIB] was tested, and the ΔTm was 0.3 °C.
`COc1ccc2c(c1)/C(=C/c1cnc[nH]1)C(=O)N2` [SU-9516] showed a ΔTm of 4.9 °C.

What follows are compounds tested against Ribosomal protein S6 kinase alpha-3 (Homo sapiens) (UniProt P51812).
Work on `Cc1cc(C=C2C(=O)C=CC2=O)cc(C)c1O` yielded a ΔTm of -7.9 °C.
Compound `CC[C@H](CO)Nc1nc(NCc2ccccc2)c2ncn(C(C)C)c2n1` [SELICICLIB] has a ΔTm of 1.4 °C.

The compounds below were run against STE20-like serine/threonine-protein kinase (Homo sapiens) (UniProt Q9H2G2).
`Cc1cc(C=C2C(=O)C=CC2=O)cc(C)c1O` gave a ΔTm of 0.7 °C.
In the case of `CC[C@H](CO)Nc1nc(NCc2ccccc2)c2ncn(C(C)C)c2n1` [SELICICLIB], the ΔTm is reported as 0.2 °C.
With `COc1ccc2c(c1)/C(=C/c1cnc[nH]1)C(=O)N2` [SU-9516] the ΔTm was 3.3 °C.

Each compound was assayed against Serine/threonine-protein kinase 26 (Homo sapiens) (UniProt Q9P289).
Serine/threonine-protein kinase 26 (Homo sapiens), sequence (Q9P289 2-416 limits assumed): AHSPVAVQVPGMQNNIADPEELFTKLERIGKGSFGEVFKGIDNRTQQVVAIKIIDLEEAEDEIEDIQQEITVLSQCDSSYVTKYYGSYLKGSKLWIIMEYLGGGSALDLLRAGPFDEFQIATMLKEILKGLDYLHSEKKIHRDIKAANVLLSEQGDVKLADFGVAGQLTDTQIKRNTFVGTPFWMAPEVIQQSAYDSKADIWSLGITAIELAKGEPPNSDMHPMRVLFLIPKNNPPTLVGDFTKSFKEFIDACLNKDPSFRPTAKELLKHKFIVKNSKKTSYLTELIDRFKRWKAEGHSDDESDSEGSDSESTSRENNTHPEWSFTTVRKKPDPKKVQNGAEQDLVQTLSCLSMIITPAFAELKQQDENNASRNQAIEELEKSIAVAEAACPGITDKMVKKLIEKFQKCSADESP
For `Cc1cc(C=C2C(=O)C=CC2=O)cc(C)c1O`, the ΔTm was -0.1 °C.
Work on `CC[C@H](CO)Nc1nc(NCc2ccccc2)c2ncn(C(C)C)c2n1` [SELICICLIB] yielded a ΔTm of 0.3 °C.
In the case of `COc1ccc2c(c1)/C(=C/c1cnc[nH]1)C(=O)N2` [SU-9516], the ΔTm is reported as 2 °C.

Each compound was assayed against Serine/threonine-protein kinase 25 (Homo sapiens) (UniProt O00506).
Serine/threonine-protein kinase 25 (Homo sapiens), sequence (O00506 whole entry, looked up): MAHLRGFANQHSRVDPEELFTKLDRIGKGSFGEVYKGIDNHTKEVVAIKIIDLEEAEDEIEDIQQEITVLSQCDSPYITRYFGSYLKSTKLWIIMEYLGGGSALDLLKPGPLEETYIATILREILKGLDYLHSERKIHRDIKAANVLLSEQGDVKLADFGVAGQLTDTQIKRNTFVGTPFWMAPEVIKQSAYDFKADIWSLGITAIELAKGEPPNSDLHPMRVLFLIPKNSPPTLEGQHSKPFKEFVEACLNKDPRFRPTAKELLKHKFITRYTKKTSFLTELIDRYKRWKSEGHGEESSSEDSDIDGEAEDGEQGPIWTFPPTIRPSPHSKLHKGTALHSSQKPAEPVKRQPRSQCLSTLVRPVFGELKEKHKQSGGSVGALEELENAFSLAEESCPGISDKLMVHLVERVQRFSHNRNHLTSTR
With `Cc1cc(C=C2C(=O)C=CC2=O)cc(C)c1O` the ΔTm was 0.4 °C.
For `CC[C@H](CO)Nc1nc(NCc2ccccc2)c2ncn(C(C)C)c2n1` [SELICICLIB], the ΔTm was 0.3 °C.
`COc1ccc2c(c1)/C(=C/c1cnc[nH]1)C(=O)N2` [SU-9516] was tested, and the ΔTm was 6.4 °C.
